Activity calls are given as the source filed them.
Tests used:
[1] = target: Sphingosine 1-phosphate receptor 2 (Homo sapiens, UniProt O95136); experiment: Dose Response Cell Based Assay for Agonists of the S1P2 Receptor of Purchased Analogues. [Related pubchem assays: 729, 843, 854, 736 ]; assay type: functional
[2] = target: NADPH oxidase 1 (Homo sapiens, UniProt Q9Y5S8); experiment: Luminescence-based cell-based dose response assay to identify inhibitors of NADPH oxidase 1 (NOX1).; assay type: functional
[3] = THP-1 cell cytotoxicity, dose response, cytotoxicity control for non-replicating M. tuberculosis project (AID 489025); assay type: functional
[4] = target: Paired box protein Pax-8 (Homo sapiens, UniProt Q06710); experiment: PAX8 transcriptional activity inhibition in RMG-I – RMG-I cells, luciferase, cherry-pick, dose response (AID 687027); assay type: functional, cell-based;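 also: luciferase reporter driven by Pax8 target thyroperoxidase promoter measured by SteadyGlo luminescence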
[5] = Luminescence Cell-Based Dose Retest to Confirm Inhibitors of Cancer Stem Cells. [Related pubchem assays (depositor defined):AID2717, AID2721]; assay type: functional; details: Homo sapiens
[6] = cells; assay type: functional
[7] = Vero E6 cell cytotoxicity, dose response, cytotoxicity control for non-replicating M. tuberculosis project, secondary assay (AID 492998); assay type: functional, VeroE6; details: Vero C1008
[8] = HepG2 cell cytotoxicity, dose response, cytotoxicity control for non-replicating M. tuberculosis project (AID 489018); assay type: functional; details: Mycobacterium tuberculosis
[9] = Luminescence-based dose response cell-based high throughput screening assay for cytotoxic compounds using the IEC-6 intestinal epithelial cell line. [Related pubchem assays: 1858 (Summary AID.), 1825 (Counterscreen.), 1907 (Confirmation screen.)]; assay type: functional
[10] = HPDE-C7 pancreatic duct cell viability loss – fluorescence, HTS (AID 430); assay type: functional, cell-based; details: Homo sapiens
[11] = viability loss of HPDE-C7K cells – cell-based, fluorescence, HTS, primary screen (AID 431); assay type: functional; details: Homo sapiens
[12] = target: T1, fMet-Leu-Phe receptor (Homo sapiens, UniProt P21462); experiment: formyl peptide receptor binders – dose response (AID 519); assay type: functional
T1 sequence (P21462 whole entry): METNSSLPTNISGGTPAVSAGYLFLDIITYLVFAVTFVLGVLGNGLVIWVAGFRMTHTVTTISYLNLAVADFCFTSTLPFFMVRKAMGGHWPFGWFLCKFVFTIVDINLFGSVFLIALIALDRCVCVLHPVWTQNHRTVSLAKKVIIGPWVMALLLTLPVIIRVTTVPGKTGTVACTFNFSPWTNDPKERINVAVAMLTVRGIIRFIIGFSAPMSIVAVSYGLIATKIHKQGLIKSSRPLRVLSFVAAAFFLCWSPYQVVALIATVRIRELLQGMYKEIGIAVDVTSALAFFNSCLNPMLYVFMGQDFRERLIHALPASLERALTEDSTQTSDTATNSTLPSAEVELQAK

[13] = target: Estrogen receptor beta (Homo sapiens, UniProt Q92731); experiment: blockers of SRC-3 recruitment to ERβ – biochemical, ELISA, streptavidin-HRP readout, orthogonal assay, confirmation (AID 1060)
[14] = target: Nonstructural protein 1 (Influenza A virus, UniProt Q194T2); assay type: functional, Influenza A virus (A/California/07/2009(H1N1))
[15] = target: T2, Apoptotic protease-activating factor 1 (Homo sapiens, UniProt O14727); assay type: functional
T2 sequence (O14727 whole entry): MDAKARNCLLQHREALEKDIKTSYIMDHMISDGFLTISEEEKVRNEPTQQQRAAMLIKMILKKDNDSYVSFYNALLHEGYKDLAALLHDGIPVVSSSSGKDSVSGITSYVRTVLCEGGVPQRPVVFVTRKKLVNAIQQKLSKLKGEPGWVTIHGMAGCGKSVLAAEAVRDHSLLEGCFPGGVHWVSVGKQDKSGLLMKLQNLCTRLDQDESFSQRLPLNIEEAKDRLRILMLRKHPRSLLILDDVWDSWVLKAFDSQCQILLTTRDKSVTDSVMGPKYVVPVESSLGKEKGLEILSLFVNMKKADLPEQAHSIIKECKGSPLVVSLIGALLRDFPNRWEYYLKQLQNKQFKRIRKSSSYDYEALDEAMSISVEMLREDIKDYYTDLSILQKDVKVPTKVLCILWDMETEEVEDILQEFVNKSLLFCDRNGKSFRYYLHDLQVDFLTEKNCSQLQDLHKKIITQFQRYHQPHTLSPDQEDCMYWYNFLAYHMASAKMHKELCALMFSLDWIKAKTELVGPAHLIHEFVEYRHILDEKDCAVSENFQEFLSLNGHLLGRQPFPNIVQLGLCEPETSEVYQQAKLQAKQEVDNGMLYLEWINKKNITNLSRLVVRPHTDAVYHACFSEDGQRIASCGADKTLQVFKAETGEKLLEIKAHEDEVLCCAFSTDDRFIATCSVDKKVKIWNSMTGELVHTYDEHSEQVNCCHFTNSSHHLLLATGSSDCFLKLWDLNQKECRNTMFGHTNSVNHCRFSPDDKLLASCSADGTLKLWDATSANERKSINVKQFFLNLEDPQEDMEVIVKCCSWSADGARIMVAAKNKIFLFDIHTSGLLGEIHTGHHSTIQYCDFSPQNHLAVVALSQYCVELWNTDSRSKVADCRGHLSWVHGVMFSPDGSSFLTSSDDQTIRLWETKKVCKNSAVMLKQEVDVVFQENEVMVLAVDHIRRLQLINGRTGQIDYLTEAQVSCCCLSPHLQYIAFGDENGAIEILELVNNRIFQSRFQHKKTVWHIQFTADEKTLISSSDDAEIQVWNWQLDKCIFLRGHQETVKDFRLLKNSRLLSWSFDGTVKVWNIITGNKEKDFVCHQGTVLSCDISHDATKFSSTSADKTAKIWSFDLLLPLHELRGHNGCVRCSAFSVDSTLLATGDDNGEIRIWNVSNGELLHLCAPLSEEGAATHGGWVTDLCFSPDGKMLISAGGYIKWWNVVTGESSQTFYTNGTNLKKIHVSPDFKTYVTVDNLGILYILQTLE

[16] = target: Bcl-2-like protein 10 (Homo sapiens, UniProt Q9HD36); experiment: Bcl-B/TR3 peptide binding disruption – biochemical, fluorescence polarization, FITC-TR3 peptide, selectivity assay for Bfl-1 inhibitor project, primary screen (AID 748);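 also: fluorescence polarization from a fluorescein-labelled TR3 peptide binding purified Bcl-B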
[17] = target: Large T antigen (Simian virus 40, UniProt P03070); assay type: functional, Betapolyomavirus macacae;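 also: Confirmatory-stage PubChem screen for compounds that inhibit SV40 T antigen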
Large T antigen, sequence (P03070 whole entry): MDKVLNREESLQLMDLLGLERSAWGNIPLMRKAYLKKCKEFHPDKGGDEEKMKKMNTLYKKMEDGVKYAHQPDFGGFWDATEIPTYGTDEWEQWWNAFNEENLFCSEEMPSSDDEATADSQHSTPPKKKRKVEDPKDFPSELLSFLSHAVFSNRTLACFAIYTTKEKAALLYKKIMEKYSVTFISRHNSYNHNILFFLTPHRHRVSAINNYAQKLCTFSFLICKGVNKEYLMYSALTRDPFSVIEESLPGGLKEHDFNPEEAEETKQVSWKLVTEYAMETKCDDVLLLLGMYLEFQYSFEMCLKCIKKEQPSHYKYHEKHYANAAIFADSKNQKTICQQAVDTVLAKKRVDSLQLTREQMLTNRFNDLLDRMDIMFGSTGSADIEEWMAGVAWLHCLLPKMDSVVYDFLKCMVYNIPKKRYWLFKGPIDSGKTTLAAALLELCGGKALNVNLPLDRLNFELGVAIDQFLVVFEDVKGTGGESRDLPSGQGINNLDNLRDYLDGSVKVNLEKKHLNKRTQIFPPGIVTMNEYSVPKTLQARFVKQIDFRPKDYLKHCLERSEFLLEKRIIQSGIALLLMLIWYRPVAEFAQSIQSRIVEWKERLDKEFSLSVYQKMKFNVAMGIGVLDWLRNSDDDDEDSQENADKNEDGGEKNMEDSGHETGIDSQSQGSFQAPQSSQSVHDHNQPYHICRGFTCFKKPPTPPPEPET

Paired box protein Pax-8, sequence (Q06710 whole entry): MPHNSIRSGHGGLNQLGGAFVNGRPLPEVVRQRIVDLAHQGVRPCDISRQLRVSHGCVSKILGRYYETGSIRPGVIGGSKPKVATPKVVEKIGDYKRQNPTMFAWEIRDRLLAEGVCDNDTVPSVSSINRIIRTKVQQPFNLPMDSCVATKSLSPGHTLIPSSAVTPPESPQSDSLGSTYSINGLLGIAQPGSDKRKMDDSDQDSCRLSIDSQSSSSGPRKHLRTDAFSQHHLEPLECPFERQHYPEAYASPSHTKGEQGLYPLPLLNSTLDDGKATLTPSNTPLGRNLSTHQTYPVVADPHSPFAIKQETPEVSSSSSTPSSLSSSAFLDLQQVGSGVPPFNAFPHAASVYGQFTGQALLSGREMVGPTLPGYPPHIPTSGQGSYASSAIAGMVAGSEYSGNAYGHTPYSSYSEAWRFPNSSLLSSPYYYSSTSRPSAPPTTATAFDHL
Sphingosine 1-phosphate receptor 2, sequence (O95136 whole entry): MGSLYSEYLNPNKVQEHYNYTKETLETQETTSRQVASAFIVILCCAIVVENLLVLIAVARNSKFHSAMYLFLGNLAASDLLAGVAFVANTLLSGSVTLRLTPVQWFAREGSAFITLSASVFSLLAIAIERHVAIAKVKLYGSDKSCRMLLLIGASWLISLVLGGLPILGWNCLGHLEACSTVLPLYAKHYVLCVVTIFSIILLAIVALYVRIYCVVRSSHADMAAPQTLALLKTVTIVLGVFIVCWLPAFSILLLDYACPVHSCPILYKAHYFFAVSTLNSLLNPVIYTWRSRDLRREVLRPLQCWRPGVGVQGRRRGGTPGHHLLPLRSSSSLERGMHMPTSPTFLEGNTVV
Nonstructural protein 1, sequence (Q194T2 whole entry): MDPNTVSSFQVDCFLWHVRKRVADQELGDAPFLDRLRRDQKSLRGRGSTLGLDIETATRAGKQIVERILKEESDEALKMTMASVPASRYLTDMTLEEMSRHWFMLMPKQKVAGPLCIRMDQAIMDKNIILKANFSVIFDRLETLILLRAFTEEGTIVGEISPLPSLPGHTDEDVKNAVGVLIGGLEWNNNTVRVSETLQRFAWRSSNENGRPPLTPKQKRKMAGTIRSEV
Bcl-2-like protein 10, sequence (Q9HD36 whole entry): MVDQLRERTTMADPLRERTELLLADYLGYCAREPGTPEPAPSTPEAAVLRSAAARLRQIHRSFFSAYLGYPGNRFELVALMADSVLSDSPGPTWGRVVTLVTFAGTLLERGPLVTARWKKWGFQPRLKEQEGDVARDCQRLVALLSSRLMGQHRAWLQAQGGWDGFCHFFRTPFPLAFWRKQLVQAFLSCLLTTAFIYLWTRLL
NADPH oxidase 1, sequence (Q9Y5S8 whole entry): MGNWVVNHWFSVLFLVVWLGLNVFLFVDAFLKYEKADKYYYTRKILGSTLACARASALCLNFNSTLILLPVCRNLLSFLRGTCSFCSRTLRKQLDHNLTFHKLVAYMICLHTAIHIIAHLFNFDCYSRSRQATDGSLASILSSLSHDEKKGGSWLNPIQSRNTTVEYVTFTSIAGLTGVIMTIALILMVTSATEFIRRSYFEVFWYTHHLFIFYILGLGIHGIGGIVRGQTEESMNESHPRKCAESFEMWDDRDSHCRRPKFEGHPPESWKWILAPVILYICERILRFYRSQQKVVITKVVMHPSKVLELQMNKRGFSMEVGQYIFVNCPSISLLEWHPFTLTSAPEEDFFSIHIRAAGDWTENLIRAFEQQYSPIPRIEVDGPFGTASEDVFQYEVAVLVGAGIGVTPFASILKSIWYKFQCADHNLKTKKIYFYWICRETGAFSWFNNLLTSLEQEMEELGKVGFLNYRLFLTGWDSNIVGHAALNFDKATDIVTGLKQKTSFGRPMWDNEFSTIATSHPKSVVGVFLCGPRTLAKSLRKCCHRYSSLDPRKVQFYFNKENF
Estrogen receptor beta, sequence (Q92731 whole entry): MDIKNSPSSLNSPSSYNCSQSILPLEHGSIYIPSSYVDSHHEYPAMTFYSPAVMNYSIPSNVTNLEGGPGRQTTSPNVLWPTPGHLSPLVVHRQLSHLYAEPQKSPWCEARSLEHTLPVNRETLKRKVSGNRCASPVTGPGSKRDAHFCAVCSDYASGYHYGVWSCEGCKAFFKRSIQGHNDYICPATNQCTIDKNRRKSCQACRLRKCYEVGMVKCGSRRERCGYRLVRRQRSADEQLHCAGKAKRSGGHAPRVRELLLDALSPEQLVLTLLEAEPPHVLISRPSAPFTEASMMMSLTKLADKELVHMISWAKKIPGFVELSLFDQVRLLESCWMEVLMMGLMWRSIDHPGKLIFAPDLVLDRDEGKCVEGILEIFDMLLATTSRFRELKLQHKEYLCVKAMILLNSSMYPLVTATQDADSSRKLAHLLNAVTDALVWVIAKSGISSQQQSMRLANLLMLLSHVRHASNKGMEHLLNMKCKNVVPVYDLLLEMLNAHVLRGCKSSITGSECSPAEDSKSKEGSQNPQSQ

CCCNC(=O)CN(C)CC(=O)c1cc(C)n(Cc2ccccc2)c1C
EC50 [1]: > 30 µM (not active)

CC(=O)N(C)c1ccc(NC(=O)Nc2ccc(Cl)cc2)cc1
IC50 [2]: > 20 µM (not active)

O=C(Nc1ccc(N2CCN(C(=O)c3cccs3)CC2)cc1)c1ccc([N+](=O)[O-])o1
CC50 [3]: 1.18 µM (active) | AC50 [4]: 1.96 µM (active) | AC50 [5]: 1.5 µM (active) | IC50 [6]: < 0.1 µM (active) | CC50 [7]: 1.46 µM (active) | CC50 [8]: > 20 µM (active) | IC50 [9]: 1.77 µM (active)

COc1cccc(C2C=C(c3ccc(OC)cc3OC)Nc3nnnn32)c1 (configuration not stated)
EC50 [10]: 9.03 µM (active) | EC50 [11]: 8.72 µM (active)

CCOC(=O)N1CCN(c2cc(NCCC(=O)O)c3c4c(onc24)-c2ccccc2C3=O)CC1
Ki [12]: > 66.7 µM (inactive) | IC50 [13]: 5.41 µM (not active) | IC50 [14]: 20.3 µM (active) | IC50 [15]: 25.6 µM (active) | IC50 [16]: 7.52 µM (active) | IC50 [17]: > 100 µM (active)
